# Experimental data reported in article PMC4459640 (European journal of pharmaceutical sciences : official …, 2014).
# B1: human SULT2A1 (Homo sapiens) (protein)
# chain: MSDDFLWFEGIAFPTMGFRSETLRKVRDEFVIRDEDVIILTYPKSGTNWLAEILCLMHSKGDAKWIQSVPIWERSPWVESEIGYTALSETESPRLFSSHLPIQLFPKSFFSSKAKVIYLMRNPRDVLVSGYFFWKNMKFIKKPKSWEEYFEWFCQGTVLYGSWFDHIHGWMPMREEKNFLLLSYEELKQDTGRTIEKICQFLGKTLEPEELNLILKNSSFQSMKENKMSNYSLLSVDYVVDKAQLLRKGVSGDWKNHFTVAQAEDFDKLFQEKMADLPRELFPWE
# Key:
# [1] = ref Brown et al., 1985, Frölich et al., 2011, Zuckerman et al., 1999; cited from earlier work
# opioid receptors [2] = conditions: ref Brown et al., 1985, Frölich et al., 2011, Zuckerman et al., 1999; cited from earlier work
# opioid receptors [3] = conditions: ref Brown et al., 1985, Frölich et al., 2011, Zuckerman et al., 1999; cited from earlier work; remark: listed apart in the source
# UGT2B7 = conditions: cited from earlier work
# [4] = tested on: HepG2 human hepatoma cells
# human SULT1A2 = human SULT1A2 (Homo sapiens, UniProt P50226); conditions: pH 7.5
# human SULT1A1 = human SULT1A1 (Homo sapiens, UniProt P50225); conditions: pH 7.5
# [5] = human, rabbit, and rat; ref Frölich et al., 2011, Smith et al., 1973, Skarke and Lötsch, 2002; cited from earlier work
# [6] = morphine metabolites in human; ref Frölich et al., 2011, Skarke and Lötsch, 2002; cited from earlier work
# not read = substrate: Oc1ccc2c(c1)[C@@]13CCCC[C@@]1(O)[C@@H](C2)N(CC1CCC1)CC3; test: not read; conditions: other: Michaelis-Menten, pH 7.5
# [7] = substrate: CN1CC[C@]23CCCC[C@H]2[C@H]1Cc1ccc(O)cc13; format: in vitro ADME, human; conditions: other: Michaelis-Menten, pH 7.5
# Chain of human SULT1A2 (P50226 whole entry): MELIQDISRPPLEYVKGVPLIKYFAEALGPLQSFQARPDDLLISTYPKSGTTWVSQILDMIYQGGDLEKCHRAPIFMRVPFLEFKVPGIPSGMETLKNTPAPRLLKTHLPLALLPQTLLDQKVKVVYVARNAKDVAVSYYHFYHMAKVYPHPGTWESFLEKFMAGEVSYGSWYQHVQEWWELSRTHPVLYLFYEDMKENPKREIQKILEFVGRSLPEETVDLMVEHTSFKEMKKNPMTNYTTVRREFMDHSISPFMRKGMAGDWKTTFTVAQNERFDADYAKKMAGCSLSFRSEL
# Chain of human SULT1A1 (P50225 whole entry): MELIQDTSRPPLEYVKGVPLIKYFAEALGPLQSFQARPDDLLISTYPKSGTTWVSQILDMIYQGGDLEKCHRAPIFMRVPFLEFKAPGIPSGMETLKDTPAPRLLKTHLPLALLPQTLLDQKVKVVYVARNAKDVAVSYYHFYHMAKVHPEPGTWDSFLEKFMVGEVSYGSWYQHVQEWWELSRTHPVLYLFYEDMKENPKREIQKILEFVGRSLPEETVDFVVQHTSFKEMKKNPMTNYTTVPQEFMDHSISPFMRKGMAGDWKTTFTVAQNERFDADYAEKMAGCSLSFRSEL
molecule,measurement,setting,value
CN1CC[C@]23c4c5ccc(O)c4O[C@H]2[C@@H](OS(=O)(=O)O)C=C[C@H]3[C@H]1C5 [morphine-6-sulfate],Analgesic effect compared with morphine,[1],greater analgesic effect than does morphine
same,Affinity toward opioid receptors,opioid receptors [2],comparable to those of morphine
same,Capability to activate the opioid receptors (ligand activity),opioid receptors [3],comparable to those of morphine
"CN1CC[C@]23c4c5ccc(O)c4O[C@H]2C(=O)CC[C@@]3(O)[C@H]1C5 [Oxymorphone, oxymorphone]",Km,UGT2B7,540 to 1360 µM
same,Efficiency of sulfation by HepG2 cells relative to the other three opioid drugs,[4],more efficiently
"Oc1ccc2c3c1O[C@H]1[C@H](O)CC[C@@]4(O)[C@@H](C2)N(CC2CC2)CC[C@]314 [6βNaltrexol, 6β-naltrexol]","Specific activity, SULT1A2",human SULT1A2,0.08 ± 0.01 nmol/min/mg
same,"Specific activity, SULT1A1",human SULT1A1,0.21 ± 0.03 nmol/min/mg
"Oc1ccc2c(c1)[C@@]13CCCC[C@@]1(O)[C@@H](C2)N(CC1CCC1)CC3 [Butorphanol, butorphanol]",Efficiency of sulfation by HepG2 cells relative to the other three opioid drugs,[4],more efficiently
"CN1CC[C@]23c4c5ccc(OS(=O)(=O)O)c4O[C@H]2[C@@H](O)C=C[C@H]3[C@H]1C5 [morphine-3-sulfate, morphine-3-O-sulfate]",Sulfate metabolite as share of the metabolites from urine,[5],~ 2%
same,Affinity toward opioid receptors,opioid receptors [2],low affinity
same,Capability to activate the opioid receptors (ligand activity),opioid receptors [3],low capability to activate the receptors
"C=CCN1CC[C@]23c4c5ccc(O)c4O[C@H]2[C@@H](O)C=C[C@H]3[C@H]1C5 [Nalorphine, nalorphine]",Efficiency of sulfation by HepG2 cells relative to the other three opioid drugs,[4],more efficiently
CN1CC[C@]23c4c5ccc(O)c4O[C@H]2[C@@H](O[C@@H]2O[C@H](C(=O)O)[C@@H](O)[C@H](O)[C@H]2O)C=C[C@H]3[C@H]1C5 [morphine-glucuronide],Share of metabolite,[6],60–70 % of metabolite
B1,Km,not read,38.95 ± 1.21 µM
same,Vmax,not read,0.00104 µmol/min/mg
same,Km,[7],599.0 ± 60.7 µM
same,Vmax,[7],0.00032 µmol/min/mg
